Reference: patent publication US20230312652A1, “NOVEL PEPTIDES AND USES THEREOF” (Aarhus Universitet, priority 2020, published 2023)
Where a SMILES comes first, the peptide text is derived from it.

Experiments:
[1] = tested on: cortical neurons; experiment: Survival of wild-type cortical neurons, MTT assay; type: cell-based, mouse; settings: for relative survival compared to control: 1 uM on DIV7, DIV9 and DIV11, MTT at DIV12
Procedure: Cortical neurons were isolated from p0 wild-type mice and seeded in a density of 50.000 in a 96-well plate pre-coated with poly-L and laminin and incubated at 37° C. in a 5% C02 atmosphere. At 7 days in vitro (DIV7) the neurons were treated by changing half the media with neurobasal A with B27 containing the peptides (P2, P4 or P6) to give a finale concentration of 1 uM and further incubated. The cortical neurons were treated in a likewise manner on DIV9 and DIV11. At DIV12 half the media was removed and 3-(4,5-dimethylthiazole-2-yl)-2,5-diphenyltetrazolium bromide (MTT) was added to the media to give a finale concentration of 0.5 mg/mL. MTT is reduced by mitochondrial enzymes in active cells to an insoluble product called formazan, which can be detected by colorimetry. Thus, the colour generated reflects activity and viable cells in the culture. The neurons were incubated for 4 hours with MTT and thereafter lysed in a 50% EtOH and 50% DMSO solution. To assure proper mixing of formazan, the plate was left to shake for 30 minutes before being measured at 570 nm and 650 nm. Student's t-test was used for statistical analysis.
Further, a drug-dose response on survival for peptide P1 was assessed in a similar manner.

[2] = tested on: GRN(+/-) cortical neurons; experiment: Survival of GRN-deficient cortical neurons, MTT assay; type: cell-based, mouse; settings: 1 uM on DIV7, 9, 11, 13 and 15; MTT at DIV16
[3] = tested on: CREB; experiment: CREB activation in striatum and hippocampus of wild-type mice after IV injection; type: in vivo, mouse; settings: 0.26 mg/kg IV, 1 hour after injection
Procedure: To assess this, 8 weeks old wild-type mice were injected intravenously with either 0.26 mg/kg of peptide P1 or LP1 dissolved in saline. 1 hour after the injection, the mice were sacrificed by cervical dislocation and striatal tissue was isolated by dissection and immediately lysed using a TissueLyser in lysis buffer containing cOmplete and DTT. The samples were subsequently homogenized by sonication. The phosphorylation of CREB on serine 133 was subsequently validated by western blotting. The levels of phosphorylated CREB were normalized to the corresponding beta-actin levels. Student's t-test was used for statistical analysis.

[4] = tested on: CREB; experiment: CREB activation (phosphorylation on serine 133) in wild-type cortical neurons, western blotting; type: cell-based, mouse; settings: 20 minutes, 7 days in vitro
Procedure: (§1) To assess the ability of peptides P1, P2 and P6, respectively, to activate transcription factor CREB, cortical neurons were isolated from p0 wild-type mice and seeded in a density of 500.000 per well. After 7 days in vitro the neurons were stimulated with the different peptide variants at 1 uM in neurobasal A media and incubated at 37° C. and 5% C02 for 20 minutes. Hereafter, the neurons were lysed in lysis buffer containing DTT and cOmplete cocktail protease inhibitor and subsequently sonicated to disrupt the nuclear membrane. The phosphorylation of CREB on serine 133 was validated by western blotting normalized to beta-actin. As control, cells were stimulated with a scrambled peptide (Scr). Student's t-test was used for statistical analysis.
as §1, with “The” for “To assess the”, “peptide P1” for “peptides P1, P2”, “a linear peptide analog of P1 with acetylated N- and amidated C-terminals (referred to as LP1)” for “P6, respectively,”, “CREB was assessed. Cortical” for “CREB, cortical”, “20 nM” for “1 uM”, “CO2” for “C02”

[5] = tested on: SV2A; experiment: SV2A levels in wild-type neurons, western blotting; type: cell-based, mouse; settings: 0.1 uM or 1 uM from DIV8 for 3 days
Procedure: Hippocampal neurons were isolated from p0 wild-type mice and seeded in a density of 250,000 per well in 12-well trays precoated with poly-L and laminin. At DIV8 the neurons were treated with 0.1 uM or 1 uM P6 for 3 days. The neurons were lysed in RIPA buffer containing cOmplete and phosSTOP and SV2A levels were validated by western blotting, normalized to beta-actin.

[6] = tested on: hippocampal neurons; experiment: Neuronal branching in wild-type hippocampal neurons; type: cell-based, mouse; settings: DIV1 to DIV4
Procedure: Hippocampal neurons were isolated from p0 wild-type mice and seeded in a density of 10.000 per well in 24-well trays containing poly-D and laminin coated coverslips. At DIV1 the neurons were treated with 0.1 uM or 1 uM P6. BDNF (1 nM) was used as a positive control. At DIV4 the neurons were fixed and immunostained for MAP2, a marker of dendrites. Pictures of MAP2 were taken of neurites with 20 neurons pr. coverslip. The neurites may not be in contact with other neurites from other neurons. The pictures were analysed in Imaris Software. The number branches were counted manually.

[7] = tested on: AMPK (T172) and CREB (S133); experiment: P1 activation of AMPK and CREB with or without CaMKK2-inhibitor STO-609 in cortical neurons; type: cell-based, mouse; settings: 5 uM STO-609
Procedure: Mouse cortical neurons were isolated from p0 wild-type mice and seeded in a density of 250,000 per well in a 12-well tray. After 7 days in vitro the neurons were either pre-treated with STO-609 (5 uM) for 1 hour or with DMSO (control). After 1 hour, the neurons were stimulated with P1 or a scrambled peptide (Scr), with or without STO-609, in neurobasal A media and incubated at 37° C. and 5% CO2 for 20 minutes. Hereafter, the neurons were lysed in lysis buffer containing DTT and cOmplete cocktail protease inhibitor. Phosphorylation of AMPK (T172) and CREB (S133) was validated by western blotting and normalized to beta-actin.

[8] = tested on: CREB and AMPK; experiment: CREB and AMPK activation in brain of wild-type mice after subcutaneous injection; type: in vivo, mouse; settings: 3.6 mg/kg SC, separate study
Procedure: To assess the subcutaneous administration route of peptide P1, 8 weeks old wild-type mice were subcutaneously injected with different doses ranging between 0.13 to 26 mg/kg of peptide P1 dissolved in 4.38 mM L-His, 140 mM NaCl, 0.2% Tween-20 and 1500 IU hyaluronidase (pH 6.15). Likewise, was an earlier lead peptide constituting a linear version of P1 attached to a cell-penetrating moiety (P9, SEQ ID NO: 9), tested for its ability to activate CREB in both striatum and hippocampus (in a separate study) following subcutaneous injection with 3.6 mg/kg. 2 hours after injection the mice were sacrificed by cervical dislocation and striatal tissue was isolated by dissection and snap frozen in liquid nitrogen and stored at −80° C. until further use. To assess the activation of CREB and AMPK, the tissue was lysed using a TissueLyser in lysis buffer containing cOmplete and DTT. The samples were subsequently homogenized by sonication. The phosphorylation of CREB on serine 133 and threonine 172 on AMPK was subsequently validated by western blotting and the levels of were normalized to beta-actin. Student's t-test was used for statistical analysis.

[9] = tested on: spared nerve injury (SNI) model; experiment: Spared nerve injury mouse model, acute, von Frey test; type: in vivo; settings: single SC dose 17 days post-SNI operation
Procedure: (§2) To assess the effect of peptide P3 on neuropathic pain, the spared nerve injury (SNI) model was used. The threshold for mechanical pain response is determined by testing with von Frey filaments of increasing bending force, which are repetitively pressed against the lateral area of the paw. Two baseline measurements were made before SNI operation. In brief, the common peroneal and tibial branches of the sciatic nerve were ligated and cut distally to the ligation, just distal to the branching of the sural nerve, which was left untouched. The mechanical allodynia was subsequently assessed with von Frey testing 17 days post-surgery. […] Student's t-test was used for statistical analysis.

[10] = tested on: spared nerve injury (SNI) model; experiment: Spared nerve injury mouse model, daily dosing, von Frey test; type: in vivo; settings: single SC dose daily for 8 days from 1 day post-SNI operation
Procedure: as §2
Mice, surgery and von Frey testing was performed as in Example 28.
Student's t-test was used for statistical analysis.

[11] = biological target: mouse plasma (plasma proteins); experiment: plasma binding: 2 uM P1 in plasma, ultracentrifugation, LCMS
[12] = biological target: human plasma (plasma proteins); experiment: plasma binding: 2 uM P1 in plasma, ultracentrifugation, LCMS; % Bound=100*(1-F/T4.5)
[13] = biological target: mouse brain homogenate; experiment: brain homogenate binding: 2 uM P1, ultracentrifugation, LCMS

## [MIEPVEHEESR] [Peptide P4]
[1]
  relative survival compared to control: increased the relative survival
[2]
  relative survival compared to control: increased the relative survival

## CSCC[C@H](NC(C)=O)C(=O)N[C@H](C(=O)N[C@@H](CCC(=O)O)C(=O)N1CCC[C@H]1C(=O)N[C@H](C(=O)N[C@@H](CCC(=O)O)C(=O)N[C@@H](Cc1c[nH]cn1)C(=O)N[C@@H](CCC(=O)O)C(=O)N[C@@H](CCC(=O)O)C(=O)N[C@@H](CC(=O)O)C(=O)N[C@H](C(N)=O)C(C)C)C(C)C)[C@@H](C)O [LP1, Ac-MTEPVEHEEDV—NH2, reference compound] (Ac-MTEPVEHEEDV-NH2)
[3]
  pCREB (S133) in hippocampus: increase phosphorylated CREB
  pCREB (S133) in striatum: increase phosphorylated CREB
[4]; 20 nM
  activation of CREB (phosphorylation on serine 133) compared to scrambled peptide: activated CREB to a lesser extent

## [MIGSVEQEENA] [Peptide P6]
[5]
  SV2A levels: increased SV2A levels
[1]
  relative survival compared to control: increased the relative survival
[4]; 1 uM
  activation of CREB (phosphorylation on serine 133) compared to scrambled peptide: markedly activated CREB
[6]; 0.1 uM
  neurite branching: increased neurite branching similar to BDNF
[6]; 1 uM
  neurite branching: increased neurite branching similar to BDNF
[2]
  relative survival compared to control: increased the relative survival

## O=C(O)c1ccc2c3c1cccc3c(=O)n1c3ccccc3nc21 [STO-609, reference compound]
[7]
  AMPK phosphorylation following STO-609-treatment: inhibition of AMPK

## YARAAARNARAEKEQEMTDPVDHDEDVQGAVQ (Linear peptide) [Peptide P9, reference compound]
[8]
  pCREB in hippocampus: not able to notably activate CREB
  pCREB in striatum: not able to notably activate CREB

## [MTDPVDHDEDV] [Peptide P2]
[1]
  relative survival compared to control: increased the relative survival
[4]; 1 uM
  activation of CREB (phosphorylation on serine 133) compared to scrambled peptide: markedly activated CREB
[2]
  relative survival compared to control: increased the relative survival

## [MTAPVAHAEDV] [Peptide P3]
[9]
  neuropathic pain, von Frey test: attenuated the pain in an acute manner
[10]
  neuropathic pain, von Frey test: continuously reduced the neuropathic pain

B1: BDNF (protein, UniProt P23560 19-247, looked up)
Neurotrophic factor BDNF …: APMKEANIRGQGGLAYPGVRTHGTLESVNGPKAGSRGLTSLADTFEHVIEELLDEDQKVRPNEENNKDADLYTSRVMLSSQVPLEPPLLFLLEEYKNYLDAANMSMRVRRHSDPARRGELSVCDSISEWVTAADKKTAVDMSGGTVTVLEKVPVSKGQLKQYFYETKCNPMGYTKEGCRGIDKRHWNSQCRTTQSYVRALTMDSKKRIGWRFIRIDTSCVCTLTIKRGR
notes: neurotrophic factor used as a positive control
[1]; BDNF as positive control
  survival in drug-dose response study: increased survival to a lesser extent than peptide P1

B2: Cyclic peptide P1 (peptide)
peptide: MTEPVEHEEDV
modifications: Cyclic (backbone): head-to-tail cyclized via the M amino acid residue in position 1 and the V amino acid residue in position 11
[11]
  unbound in plasma: > 75%
[12]
  plasma binding: 20%
[13]
  brain homogenate binding: < 20%
